# Experimental data reported in ChEMBL document CHEMBL1201862, “PubChem BioAssay data set” (2004).
# Activity calls are given as the source filed them.
# Legend:
# [1] = inhibitors of intracellular T. cruzi replication, confirmation, NIH3T3 host cells, beta-gal luminescence (AID 2044); assay type: functional, cell-based;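 note: intracellular parasites grown in NIH/3T3 mouse fibroblasts as host cells; luminescent beta-galactosidase reporter signal from transgenic T. cruzi replicating inside host cells; inhibitors lower the luminescence signal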
# [2] = cytotoxicity toward NIH3T3 fibroblasts, dose response, counter-screen, cell-based, ATP luminescence, mouse fibroblasts (AID 2010); assay type: functional;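 note: cells exposed to compound for about 90 hours before reading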
# SUMO-activating enzyme [3] = target: T1, SUMO-activating enzyme (Homo sapiens, UniProt Q9UBT2); test: SUMOylation inhibitor hit validation, confirmation, SUMOylation inhibitor project, biochemical, AlphaScreen (AID 2018); assay type: functional
# Vero [4] = test: host cell cytotoxicity of antiviral hits, dose response, cytotoxicity control for West Nile virus antiviral project, secondary assay (AID 1650); assay type: functional; conditions: Chlorocebus sabaeus
# SUMO-activating enzyme [5] = target: T1, SUMO-activating enzyme; test: inhibitors of in vitro SUMOylation cascade, primary screen, biochemical, HTRF, uHTS (AID 2006); assay type: protein-complex assay
# [6] = target: Induced myeloid leukemia cell differentiation protein Mcl-1 (Homo sapiens, UniProt Q07820); assay type: functional
# [7] = target: Voltage-gated inwardly rectifying potassium channel KCNH2 (Homo sapiens, UniProt Q12809); conditions: Potency;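 note: confirmatory quantitative high-throughput screen measuring inhibition of hERG channel activity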
# [8] = cytotoxicity in HEK-293T cells, dose response, cytotoxicity control for TCR NF-kB inhibitor project, luminescence, T-cell screen hits (AID 489026); assay type: functional, cell-based;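 note: cells exposed to compound about 14 hours before the viability readout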
# Streptokinase A = target: T2, Streptokinase A (Streptococcus pyogenes serotype M1, UniProt P10520); test: S. pyogenes streptokinase expression inhibitors, potency, dose response, plasminogen activation absorbance, OD405 (AID 1914); assay type: functional, Streptococcus pyogenes M1 GAS;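 note: secreted streptokinase activity via plasminogen activation per viability signal from cell pellet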
# T2 sequence (P10520 whole entry): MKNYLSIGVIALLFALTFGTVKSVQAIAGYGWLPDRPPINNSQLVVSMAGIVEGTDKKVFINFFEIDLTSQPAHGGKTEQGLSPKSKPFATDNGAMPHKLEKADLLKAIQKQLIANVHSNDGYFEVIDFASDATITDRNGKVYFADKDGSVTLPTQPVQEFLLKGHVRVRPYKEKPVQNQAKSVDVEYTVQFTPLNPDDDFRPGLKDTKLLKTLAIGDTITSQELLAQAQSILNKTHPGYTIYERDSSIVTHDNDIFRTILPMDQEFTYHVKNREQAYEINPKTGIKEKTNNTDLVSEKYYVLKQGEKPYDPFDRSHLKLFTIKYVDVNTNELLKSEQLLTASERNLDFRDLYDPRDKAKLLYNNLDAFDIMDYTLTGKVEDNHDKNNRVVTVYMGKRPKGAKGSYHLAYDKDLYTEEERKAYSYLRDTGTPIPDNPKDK
# Streptococcus = test: Group A Streptococcus viability loss, dose response, counter-screen for streptokinase expression inhibitor project, luminescence, BacTiterGlo (AID 1915); assay type: functional, organism-based;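 note: potency for reduction of bacterial viability or growth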
# [9] = tested on: Streptococcus sp. 'group A'; test: growth inhibition of control SK(-) GAS strain, dose response, counter-screen for streptokinase expression inhibitor project, luminescence, kanamycin, BacTiterGlo, confirmation (AID 1900); assay type: functional, organism-based
# Vero [10] = test: Vero cell cytotoxicity, cytotoxicity control for flavivirus capping enzyme inhibitors (AID 588742); assay type: functional; conditions: Chlorocebus sabaeus
# Genome polyprotein = Genome polyprotein (dengue virus type 2, UniProt P29990); test: Dengue-2 NS5 methyltransferase inhibitors, primary screen, biochemical, confirmation dose response (AID 588689); assay type: functional
# [11] = Luminescence Cell-Based Dose Retest to Confirm Inhibitors of Cancer Stem Cells. [Related pubchem assays (depositor defined):AID2717, AID2721]; assay type: functional; conditions: Homo sapiens
# [12] = inhibitors of HIV Env-driven cell fusion, dose response, cherry-pick (AID 652057); assay type: functional, cell-based
# [13] = ZM109 Env clade C HIV-1 fusion inhibitors, dose response, HeLa effector, CEM target cells, luciferase, cherry-pick (AID 652058); assay type: functional, cell-based
# Cytochrome P450 1A2 = target: T3, Cytochrome P450 1A2 (Homo sapiens, UniProt P05177);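 note: PubChem cytochrome P450 panel assay, CYP1A2 panel member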
# T3 sequence (P05177 whole entry): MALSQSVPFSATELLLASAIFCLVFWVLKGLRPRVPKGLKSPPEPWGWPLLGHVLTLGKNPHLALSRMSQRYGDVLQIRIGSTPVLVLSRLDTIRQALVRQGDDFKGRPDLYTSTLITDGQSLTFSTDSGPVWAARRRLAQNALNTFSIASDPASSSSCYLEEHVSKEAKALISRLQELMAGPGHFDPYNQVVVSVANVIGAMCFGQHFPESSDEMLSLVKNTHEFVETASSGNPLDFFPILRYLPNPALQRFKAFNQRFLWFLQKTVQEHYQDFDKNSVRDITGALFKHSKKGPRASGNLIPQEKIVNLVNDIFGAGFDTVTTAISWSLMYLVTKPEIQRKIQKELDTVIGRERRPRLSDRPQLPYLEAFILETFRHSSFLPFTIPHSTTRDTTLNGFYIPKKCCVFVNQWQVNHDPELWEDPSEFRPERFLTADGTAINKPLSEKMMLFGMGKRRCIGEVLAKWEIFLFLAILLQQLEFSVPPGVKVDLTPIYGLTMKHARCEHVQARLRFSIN
# [14] = inhibitors of clade B AD8 Env fusion, dose response, cell-based, cherry-pick (AID 652062); assay type: functional;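 note: luciferase signal from cell-cell fusion driven by HIV-1 clade B AD8 Env; potency is for inhibitors of fusion seen as a drop in luminescence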
# [15] = off-target signal loss in HeLa-CEM21 co-culture – HeLa F-luc CTL cells, cherry-picked, counter-screen for HIV-1 Env fusion inhibitor project, dose response (AID 652040); assay type: functional, cell-based;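 note: potency for signal decrease marking cytotoxic or nonspecific inhibition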
# Cytochrome P450 3A4 = Cytochrome P450 3A4 (Homo sapiens, UniProt P08684);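 note: CYP3A4 tested as one member of a cytochrome P450 panel screen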
# Cytochrome P450 2C9 = Cytochrome P450 2C9 (Homo sapiens, UniProt P11712)
# [16] = target: T4, Microphthalmia-associated transcription factor (Homo sapiens, UniProt O75030); test: TRPM1 promoter luciferase signal decrease, dose response, MITF inhibitor project, cell-based, SK-MEL-5, cherry-picked, set 3 (AID 493073); assay type: functional
# T4 sequence (O75030 whole entry): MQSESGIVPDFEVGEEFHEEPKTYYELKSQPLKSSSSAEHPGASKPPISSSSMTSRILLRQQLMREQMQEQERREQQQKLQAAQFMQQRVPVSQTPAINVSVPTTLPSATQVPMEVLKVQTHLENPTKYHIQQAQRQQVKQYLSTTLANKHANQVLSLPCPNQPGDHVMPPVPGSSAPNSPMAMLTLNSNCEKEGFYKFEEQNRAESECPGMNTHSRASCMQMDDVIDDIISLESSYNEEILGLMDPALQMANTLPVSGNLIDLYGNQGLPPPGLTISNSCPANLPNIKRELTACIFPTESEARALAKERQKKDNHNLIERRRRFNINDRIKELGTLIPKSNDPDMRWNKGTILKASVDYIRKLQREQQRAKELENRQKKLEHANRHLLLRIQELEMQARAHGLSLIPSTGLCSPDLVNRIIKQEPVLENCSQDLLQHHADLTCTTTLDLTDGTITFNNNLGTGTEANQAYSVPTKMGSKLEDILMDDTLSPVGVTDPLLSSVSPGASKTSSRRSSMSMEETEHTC
# [17] = target: Peroxisome proliferator-activated receptor gamma/Nuclear receptor coactivator 2 (Homo sapiens, UniProt P37231); test: (§1) TR-FRET dose response biochemical High Throughput Screening assay for agonists of the steroid receptor coactivator 2 (SRC-2) recruitment by the peroxisome proliferator-activated receptor gamma (PPAR gamma): non-selective agonists. [Related pubchem assays: 1297, 1032 ]; assay type: functional
# [18] = target: Peroxisome proliferator-activated receptor gamma/Nuclear receptor coactivator 3 (Homo sapiens, UniProt P37231); test: as §1, with “3 (SRC-3)” for “2 (SRC-2)”, “1301 (Confirmation screen.), 1048 (Primary screen.)]” for “1297, 1032 ]”; assay type: functional
# [19] = target: Peroxisome proliferator-activated receptor gamma/Nuclear receptor coactivator 1 (Homo sapiens, UniProt P37231); test: as §1, with “1 (SRC-1)” for “2 (SRC-2)”, “assays (depositor defined):AID1300, AID1808, AID504735, AID631]” for “assays: 1297, 1032 ]”; assay type: protein assay
# Cytochrome P450 2D6 = Cytochrome P450 2D6 (Homo sapiens, UniProt P10635);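 note: CYP2D6 member of a cytochrome P450 panel assay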
# [20] = target: DNA dC->dU-editing enzyme APOBEC-3A (Homo sapiens, UniProt P31941); test: Dose Response confirmation of small molecule APOBEC3A DNA Deaminase Inhibitors via a fluorescence-based single-stranded DNA deaminase assay. [Related pubchem assays (depositor defined):AID493011, AID493024]; assay type: functional
# [21] = target: DNA dC->dU-editing enzyme APOBEC-3G (Homo sapiens, UniProt Q9HC16); assay type: functional;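 note: Dose-response counterscreen measuring inhibition of APOBEC3G DNA deaminase activity, run while confirming APOBEC3A inhibitors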
# [22] = target: T5, Carboxy-terminal domain RNA polymerase II polypeptide A small phosphatase 1 (Homo sapiens, UniProt Q9GZU7); test: inhibitors of CTDSP1, concentration-response testing, biochemical assay, absorbance-based, actives from ultra-high-throughput screening (AID 540297); assay type: functional
# T5 sequence (Q9GZU7 whole entry): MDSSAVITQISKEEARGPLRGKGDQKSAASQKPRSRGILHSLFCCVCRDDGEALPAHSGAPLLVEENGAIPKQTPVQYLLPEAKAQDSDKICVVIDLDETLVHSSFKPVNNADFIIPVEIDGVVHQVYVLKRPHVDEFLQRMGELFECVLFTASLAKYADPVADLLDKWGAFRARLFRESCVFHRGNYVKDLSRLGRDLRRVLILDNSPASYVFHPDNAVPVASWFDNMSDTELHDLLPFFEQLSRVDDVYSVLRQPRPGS
# T1 sequence (Q9UBE0 whole entry): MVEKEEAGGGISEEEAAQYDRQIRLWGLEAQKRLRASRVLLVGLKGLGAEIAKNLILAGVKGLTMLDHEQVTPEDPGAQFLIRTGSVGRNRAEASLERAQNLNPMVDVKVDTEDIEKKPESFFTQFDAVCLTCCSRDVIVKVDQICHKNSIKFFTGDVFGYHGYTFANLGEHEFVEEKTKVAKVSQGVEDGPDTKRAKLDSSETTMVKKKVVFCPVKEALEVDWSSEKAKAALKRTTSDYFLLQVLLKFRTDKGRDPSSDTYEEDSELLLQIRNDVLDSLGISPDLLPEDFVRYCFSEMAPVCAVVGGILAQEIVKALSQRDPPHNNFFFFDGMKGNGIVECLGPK
# T1 sequence (Q9UBT2 whole entry): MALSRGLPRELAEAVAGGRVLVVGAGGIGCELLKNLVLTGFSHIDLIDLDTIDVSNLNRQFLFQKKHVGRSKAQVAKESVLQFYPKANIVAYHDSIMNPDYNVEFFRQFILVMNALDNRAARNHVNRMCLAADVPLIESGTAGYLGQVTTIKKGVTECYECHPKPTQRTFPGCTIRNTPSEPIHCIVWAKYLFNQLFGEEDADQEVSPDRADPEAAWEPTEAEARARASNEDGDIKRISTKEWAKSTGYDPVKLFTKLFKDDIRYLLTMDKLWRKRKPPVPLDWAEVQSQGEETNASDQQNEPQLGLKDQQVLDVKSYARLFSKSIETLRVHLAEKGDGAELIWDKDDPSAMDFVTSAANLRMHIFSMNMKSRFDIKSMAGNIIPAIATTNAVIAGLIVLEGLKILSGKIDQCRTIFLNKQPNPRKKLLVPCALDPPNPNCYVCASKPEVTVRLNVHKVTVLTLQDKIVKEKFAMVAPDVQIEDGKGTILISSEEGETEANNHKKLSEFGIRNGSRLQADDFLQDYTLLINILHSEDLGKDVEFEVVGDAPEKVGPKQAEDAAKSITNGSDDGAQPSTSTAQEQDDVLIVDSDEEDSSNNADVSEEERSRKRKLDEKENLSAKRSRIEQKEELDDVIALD
# Chain of Voltage-gated inwardly rectifying potassium channel KCNH2 (Q12809 whole entry): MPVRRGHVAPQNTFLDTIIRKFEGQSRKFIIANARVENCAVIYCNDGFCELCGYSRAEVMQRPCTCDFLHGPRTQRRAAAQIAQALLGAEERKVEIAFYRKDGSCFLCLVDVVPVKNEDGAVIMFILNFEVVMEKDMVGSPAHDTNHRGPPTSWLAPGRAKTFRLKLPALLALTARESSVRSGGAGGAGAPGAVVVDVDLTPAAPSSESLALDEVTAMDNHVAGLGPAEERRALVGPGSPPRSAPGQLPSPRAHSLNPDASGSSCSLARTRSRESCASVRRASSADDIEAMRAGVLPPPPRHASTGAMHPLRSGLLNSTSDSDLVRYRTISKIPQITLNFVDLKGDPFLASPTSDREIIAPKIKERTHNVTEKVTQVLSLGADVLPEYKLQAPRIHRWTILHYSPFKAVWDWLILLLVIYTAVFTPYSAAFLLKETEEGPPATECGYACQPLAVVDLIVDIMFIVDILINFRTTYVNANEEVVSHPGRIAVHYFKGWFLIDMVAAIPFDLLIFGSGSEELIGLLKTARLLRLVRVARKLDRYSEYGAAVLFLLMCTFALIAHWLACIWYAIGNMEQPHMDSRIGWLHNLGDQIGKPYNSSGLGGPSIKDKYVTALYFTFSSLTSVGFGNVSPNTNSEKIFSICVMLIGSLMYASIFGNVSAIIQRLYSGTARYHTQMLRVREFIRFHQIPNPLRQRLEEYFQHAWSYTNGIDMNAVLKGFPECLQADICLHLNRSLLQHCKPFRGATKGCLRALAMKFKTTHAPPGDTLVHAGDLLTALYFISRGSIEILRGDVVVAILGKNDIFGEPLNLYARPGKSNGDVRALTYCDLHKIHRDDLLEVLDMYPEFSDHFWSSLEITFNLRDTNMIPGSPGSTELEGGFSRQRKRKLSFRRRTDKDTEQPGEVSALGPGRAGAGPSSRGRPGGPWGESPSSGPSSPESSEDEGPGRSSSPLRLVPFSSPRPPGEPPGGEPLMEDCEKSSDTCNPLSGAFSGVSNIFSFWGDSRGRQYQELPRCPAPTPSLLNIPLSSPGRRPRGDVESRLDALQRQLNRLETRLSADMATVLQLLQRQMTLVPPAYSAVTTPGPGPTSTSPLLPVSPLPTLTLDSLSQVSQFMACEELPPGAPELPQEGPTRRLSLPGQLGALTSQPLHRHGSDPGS
# Chain of Cytochrome P450 2D6 (P10635 whole entry): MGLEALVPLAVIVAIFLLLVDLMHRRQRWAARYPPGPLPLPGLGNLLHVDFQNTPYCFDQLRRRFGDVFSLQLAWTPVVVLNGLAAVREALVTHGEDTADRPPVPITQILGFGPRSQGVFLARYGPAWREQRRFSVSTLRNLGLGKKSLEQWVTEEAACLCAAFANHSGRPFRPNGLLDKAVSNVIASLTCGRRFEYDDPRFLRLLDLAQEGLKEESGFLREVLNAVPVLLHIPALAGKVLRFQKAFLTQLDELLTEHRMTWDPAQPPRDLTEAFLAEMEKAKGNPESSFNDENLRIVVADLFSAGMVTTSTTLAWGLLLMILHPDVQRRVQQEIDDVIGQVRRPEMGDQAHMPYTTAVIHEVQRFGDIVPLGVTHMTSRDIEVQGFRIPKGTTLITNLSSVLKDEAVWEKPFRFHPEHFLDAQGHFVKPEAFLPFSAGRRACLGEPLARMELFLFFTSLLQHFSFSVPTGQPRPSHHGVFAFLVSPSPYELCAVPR
# Chain of Induced myeloid leukemia cell differentiation protein Mcl-1 (Q07820 whole entry): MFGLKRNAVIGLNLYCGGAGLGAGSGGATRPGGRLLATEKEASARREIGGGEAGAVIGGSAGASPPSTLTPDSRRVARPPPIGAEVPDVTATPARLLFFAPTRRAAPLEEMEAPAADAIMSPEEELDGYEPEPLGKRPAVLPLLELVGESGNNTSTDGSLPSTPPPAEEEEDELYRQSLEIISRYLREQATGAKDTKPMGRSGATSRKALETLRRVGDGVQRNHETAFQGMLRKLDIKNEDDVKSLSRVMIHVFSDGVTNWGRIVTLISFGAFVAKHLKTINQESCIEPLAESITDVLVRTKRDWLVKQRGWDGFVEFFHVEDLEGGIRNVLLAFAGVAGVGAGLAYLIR
# Chain of DNA dC->dU-editing enzyme APOBEC-3G (Q9HC16 whole entry, the tested form may be a part): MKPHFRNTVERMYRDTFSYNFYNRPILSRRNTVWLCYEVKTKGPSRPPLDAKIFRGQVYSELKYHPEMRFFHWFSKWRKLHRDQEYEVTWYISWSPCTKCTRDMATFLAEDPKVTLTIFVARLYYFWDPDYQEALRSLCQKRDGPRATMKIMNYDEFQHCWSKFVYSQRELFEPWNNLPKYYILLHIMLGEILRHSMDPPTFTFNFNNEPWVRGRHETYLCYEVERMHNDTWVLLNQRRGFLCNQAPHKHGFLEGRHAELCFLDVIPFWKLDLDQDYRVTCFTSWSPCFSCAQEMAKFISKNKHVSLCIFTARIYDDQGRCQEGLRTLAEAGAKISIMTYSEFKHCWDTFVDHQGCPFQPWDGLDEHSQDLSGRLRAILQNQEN
# Chain of DNA dC->dU-editing enzyme APOBEC-3A (P31941 whole entry): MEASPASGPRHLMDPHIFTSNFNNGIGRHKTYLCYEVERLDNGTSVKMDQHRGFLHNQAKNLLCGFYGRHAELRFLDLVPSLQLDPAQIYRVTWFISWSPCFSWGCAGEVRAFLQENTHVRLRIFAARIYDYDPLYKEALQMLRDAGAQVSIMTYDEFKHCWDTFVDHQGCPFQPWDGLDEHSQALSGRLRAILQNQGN
# Chain of Genome polyprotein (P29990 2492-3391 limits assumed): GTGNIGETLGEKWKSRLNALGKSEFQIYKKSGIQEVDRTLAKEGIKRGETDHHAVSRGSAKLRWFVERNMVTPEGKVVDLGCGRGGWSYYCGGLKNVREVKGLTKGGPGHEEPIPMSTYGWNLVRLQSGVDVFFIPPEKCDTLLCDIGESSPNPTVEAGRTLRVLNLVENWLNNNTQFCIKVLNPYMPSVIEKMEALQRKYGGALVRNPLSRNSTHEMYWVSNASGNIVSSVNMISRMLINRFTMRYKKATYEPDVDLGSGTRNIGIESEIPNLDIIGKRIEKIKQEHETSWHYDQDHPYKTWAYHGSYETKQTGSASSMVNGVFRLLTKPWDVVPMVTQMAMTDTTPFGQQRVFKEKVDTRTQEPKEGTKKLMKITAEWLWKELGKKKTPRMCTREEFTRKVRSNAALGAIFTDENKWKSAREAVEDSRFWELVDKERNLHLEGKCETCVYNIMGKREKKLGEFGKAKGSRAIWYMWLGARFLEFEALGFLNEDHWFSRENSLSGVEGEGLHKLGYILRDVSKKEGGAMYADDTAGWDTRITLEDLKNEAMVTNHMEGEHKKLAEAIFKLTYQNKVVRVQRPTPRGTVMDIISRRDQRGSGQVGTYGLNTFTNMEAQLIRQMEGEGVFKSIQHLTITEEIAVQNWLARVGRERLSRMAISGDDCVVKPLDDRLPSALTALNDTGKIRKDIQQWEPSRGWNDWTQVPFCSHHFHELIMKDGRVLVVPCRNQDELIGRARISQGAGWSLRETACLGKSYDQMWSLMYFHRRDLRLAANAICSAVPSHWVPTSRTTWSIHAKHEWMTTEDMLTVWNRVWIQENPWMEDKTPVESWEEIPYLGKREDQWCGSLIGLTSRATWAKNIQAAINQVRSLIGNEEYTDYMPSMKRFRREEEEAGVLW
# Chain of Cytochrome P450 2C9 (P11712 whole entry): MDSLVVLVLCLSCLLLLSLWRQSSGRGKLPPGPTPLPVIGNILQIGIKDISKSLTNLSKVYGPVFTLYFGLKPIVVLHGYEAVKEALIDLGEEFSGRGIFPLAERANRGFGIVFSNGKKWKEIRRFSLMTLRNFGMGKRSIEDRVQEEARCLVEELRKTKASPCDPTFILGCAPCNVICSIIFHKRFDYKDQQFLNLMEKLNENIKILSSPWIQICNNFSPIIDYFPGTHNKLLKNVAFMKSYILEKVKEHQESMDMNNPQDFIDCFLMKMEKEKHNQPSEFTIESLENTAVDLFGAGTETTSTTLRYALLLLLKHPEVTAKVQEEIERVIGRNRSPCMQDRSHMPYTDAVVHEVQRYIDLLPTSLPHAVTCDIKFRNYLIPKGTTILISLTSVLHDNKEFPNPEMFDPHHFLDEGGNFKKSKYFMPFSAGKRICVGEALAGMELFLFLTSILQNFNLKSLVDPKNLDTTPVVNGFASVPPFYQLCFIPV
structure (smiles),measurement,setting,value
CC1=C(C(=O)Nc2ccccc2)C(c2ccc(C)cc2)NC(Nc2nc3ccccc3o2)=N1 (stereo unspecified),EC50,[1],0.982 µM (active)
same,EC50,[2],22.3 µM (active)
same,IC50,SUMO-activating enzyme [3],20.2 µM (active)
same,CC50,Vero [4],> 100 µM (active)
same,IC50,SUMO-activating enzyme [5],4.07 µM (active)
N#Cc1c2nc3ccccc3nc2n2cc(NC(=O)c3ccc(F)cc3)ccc12,IC50,[6],1.57 µM (active)
same,IC50,SUMO-activating enzyme [3],1.8 µM (active)
same,IC50,SUMO-activating enzyme [5],2.96 µM (active)
CN1CCC23CCCC[C@H]2C1Cc1ccc(O)cc13 (stereo partly specified),AC50,[7],2.51 µM (inconclusive)
C/C=C1/C(=O)C[C@H]2[C@@H]3CCC4=CC(=O)CC[C@]4(C)[C@H]3CC[C@]12C [E-GUGGULSTERONE],AC50,[7],17.8 µM (inconclusive)
Brc1ccc(Oc2ccc(Br)cc2Br)c(Br)c1,AC50,[7],17.8 µM (inconclusive)
O=C(Nc1ccc(S(=O)(=O)N2CCCCC2)cc1)c1ccc(CN2CCOCC2)cc1,IC50,[8],27.2 µM (inactive)
C[C@H]1COC2=C1C(=O)C(=O)c1c2ccc2c1CCCC2(C)C [CRYPTOTANSHINONE],EC50,Streptokinase A,14.8 µM (active)
same,EC50,Streptococcus,14.1 µM (active)
same,EC50,[9],5.17 µM (active)
same,CC50,Vero [10],33.4 µM (active)
same,IC50,Genome polyprotein,90.1 µM (active)
C=C(C)COc1ccc(-c2[nH]nc(C)c2-c2ccc(OC)c(OC)c2)c(O)c1,AC50,[11],1.36 µM (active)
same,IC50,[8],44.6 µM (inactive)
O=C(Nc1ccc(C(F)(F)F)cc1)c1cccn(Cc2ccc3c(c2)OC(F)(F)O3)c1=O,AC50,[12],22.5 µM (active)
same,AC50,[13],0.59 µM (active)
same,AC50,Cytochrome P450 1A2,25.1 µM (inconclusive)
same,AC50,[11],3.68 µM (active)
same,AC50,[14],6 µM (active)
same,IC50,[8],> 80 µM (inactive)
same,AC50,[15],50.7 µM (active)
COc1ccc(-n2nc(C(F)(F)F)cc2-c2ccc(Cl)cc2)cc1 [SC-560],AC50,Cytochrome P450 3A4,39.8 µM (inconclusive)
same,AC50,[7],31.6 µM (inconclusive)
same,AC50,Cytochrome P450 2C9,25.1 µM (inconclusive)
CN(Cc1ccccc1)C1=CC(=[N+]2CCCC2)CC(C)(C)C1,EC50,[1],0.171 µM (active)
same,EC50,[2],> 60 µM (not active)
same,AC50,[16],1.55 µM (active)
same,IC50,[8],> 80 µM (inactive)
CCOc1ccc2c(c1)nc(SCC(=O)c1ccc(Br)s1)n2C,EC50,[17],22.9 µM (not active)
same,EC50,[18],> 79.4 µM (not active)
same,EC50,[19],> 79.4 µM (inactive)
same,AC50,Cytochrome P450 2D6,12.6 µM (inconclusive)
C[N+]1(CC(=O)OCCCc2ccccc2)CCOCC1,IC50,[20],1.27 µM (active)
same,IC50,[21],1.93 µM (active)
same,IC50,[22],6.39 µM (active)
same,AC50,Cytochrome P450 2D6,12.6 µM (inconclusive)
